Test results as given in ChEMBL document CHEMBL1148828, “Deoxycholic acid-derived tetraoxane antimalarials and antiproliferatives(1)” (J Med Chem, 2007).

What was measured:
NCI = test: Growth inhibition of human NCI DTP 60 cells; format: functional
NCI-H522 = test: Antiproliferative activity against human NCI-H522 cells after 48 hrs; format: functional; settings: NCI-H522, 48 h
IGROV-1 = test: Antiproliferative activity against human IGROV1 cells after 48 hrs; format: functional; settings: IGROV-1, 48 h
CAKI-1 = test: Antiproliferative activity against human CAKI1 cells after 48 hrs; format: functional; settings: CAKI-1, 48 h; for CC50: read-out: LC50 (the source's name)
786-0 = test: Antiproliferative activity against human 786-0 cells after 48 hrs; format: functional; settings: for CC50: read-out: LC50 (the source's name)
UO-31 = test: Antiproliferative activity against human UO31 cells after 48 hrs; format: functional
NCI-H460 = test: Antiproliferative activity against human NCI-H460 cells after 48 hrs; format: functional; settings: NCI-H460, 48 h
Plasmodium falciparum [1] = test: Antimalarial activity against Plasmodium falciparum TM91C235; format: functional, organism-based
SF-295 = test: Antiproliferative activity against human SF295 cells after 48 hrs; format: functional; settings: SF-295, 48 h
DU-145 = test: Antiproliferative activity against human DU145 cells after 48 hrs; format: functional; settings: DU-145, 48 h
SF-539 = test: Antiproliferative activity against human SF539 cells after 48 hrs; format: functional; settings: SF-539, 48 h
NCI-H23 = test: Antiproliferative activity against human NCI-H23 cells after 48 hrs; format: functional; settings: NCI-H23, 48 h
A498 = test: Antiproliferative activity against human A498 cells after 48 hrs; format: functional; settings: A498, 48 h
MDA-MB-435 = test: Antiproliferative activity against human MDA-MB-435 cells after 48 hrs; format: functional; settings: Homo sapiens, MDA-MB-435, 48 h
LOX IMVI = test: Antiproliferative activity against human LOX IMVI cells after 48 hrs; format: functional
HL-60 = test: Antiproliferative activity against human HL60 cells after 48 hrs; format: functional; settings: for CC50: read-out: LC50 (the source's name)
Plasmodium falciparum [2] = test: Antimalarial activity against Plasmodium falciparum W2; format: functional, organism-based
SN12C = test: Antiproliferative activity against human SN12C cells after 48 hrs; format: functional
MDA-MB-231 = test: Antiproliferative activity against human MDA-MB-231 cells after 48 hrs; format: functional; settings: MDA-MB-231, 48 h
Plasmodium falciparum [3] = test: Antimalarial activity against Plasmodium falciparum D6; format: functional, organism-based
PC-3 = test: Antiproliferative activity against human PC3 cells after 48 hrs; format: functional; settings: PC-3, 48 h
HOP-92 = test: Antiproliferative activity against human HOP92 cells after 48 hrs; format: functional
CCRF-CEM = test: Antiproliferative activity against human CCRF-CEM cells after 48 hrs; format: functional
[4] = Antiproliferative activity against human […] cells after 48 hrs; format: functional
ACHN = test: Antiproliferative activity against human ACHN cells after 48 hrs; format: functional
[5] = read-out: LC50 (the source's name)
[6] = Plasmodium falciparum, TM91C235

## CC(=O)O[C@H]1C[C@H]2[C@@H]([C@H](OC(C)=O)C[C@@H]3CC4(CC[C@@]32C)OOC2(CCCCC2)OO4)[C@@H]2CC[C@H]([C@H](C)CCC(N)=O)[C@@]12C
NCI; Homo sapiens, NCI
  GI50: < 10 nM
NCI-H522
  GI50: 230 nM
  TGI: 770 nM
NCI-H522; [5]
  CC50: 3020 nM
IGROV-1
  GI50: 32 nM
  LC50 (concentration killing 50% of cells): 430 nM
  TGI: 120 nM
CAKI-1
  GI50: 200 nM
  TGI: 1120 nM
  CC50: 3590 nM
786-0; Homo sapiens, 786-0, 48 h
  GI50: 783 nM
  TGI: 2090 nM
  CC50: 4570 nM
UO-31; Homo sapiens, UO-31, 48 h
  GI50: < 10 nM
  LC50: 40 nM
  TGI: 14 nM
NCI-H460
  GI50: 550 nM
  TGI: 2070 nM
NCI-H460; [5]
  CC50: 5280 nM

## CC(=O)O[C@H]1C[C@H]2[C@@H](CC[C@@H]3CC4(CC[C@@]32C)OOC2(CCC(C)CC2)OO4)[C@@H]2CC[C@H]([C@H](C)CCC(N)=O)[C@@]12C (stereo in doubt; 12)
NCI; Homo sapiens, NCI
  GI50: 110 nM
Plasmodium falciparum [1]; [6]
  IC50: 15.7 nM
  IC90: 30.8 nM
SF-295
  GI50: 524 nM
  TGI: 1690 nM
SF-295; [5]
  CC50: 3460 nM
DU-145
  GI50: 699 nM
  LC50 (concentration killing 50% of cells): 3340 nM
  TGI: 1730 nM
SF-539
  TGI: 1840 nM
SF-539; [5]
  CC50: 3610 nM
NCI-H23
  GI50: 660 nM
  LC50 (concentration killing 50% of cells): 3390 nM
  TGI: 1710 nM
A498
  GI50: 923 nM
  TGI: 1920 nM
A498; [5]
  CC50: 4000 nM
MDA-MB-435
  GI50: 951 nM
  TGI: 1940 nM
MDA-MB-435; [5]
  CC50: 3960 nM
LOX IMVI; Homo sapiens, LOX IMVI, 48 h
  GI50: 111 nM
  TGI: 259 nM
HL-60; Homo sapiens, HL-60, 48 h
  GI50: 769 nM
  TGI: 1840 nM
  CC50: 4410 nM
Plasmodium falciparum [2]
  IC90: 29.7 nM
Plasmodium falciparum [2]; Plasmodium falciparum, W2
  IC50: 18.8 nM
SN12C
  GI50: 833 nM
  LC50 (concentration killing 50% of cells): 3000 nM
  TGI: 1580 nM
MDA-MB-231
  GI50: 821 nM
  TGI: 1760 nM
MDA-MB-231; [5]
  CC50: 3770 nM
Plasmodium falciparum [3]; Plasmodium falciparum, D6
  IC50: 13.6 nM
  IC90: 19 nM

## CC1CCC2(CC1)OOC1(CC[C@@]3(C)[C@H](CC[C@@H]4[C@@H]3C[C@H](O)[C@]3(C)[C@@H]([C@H](C)CCC(=O)NCCN(C)C)CC[C@@H]43)C1)OO2 (stereo in doubt; 17a)
NCI
  GI50: 130 nM
DU-145
  GI50: 641 nM
  LC50 (concentration killing 50% of cells): 4490 nM
  TGI: 1910 nM
PC-3
  GI50: 367 nM
  TGI: 1620 nM
PC-3; [5]
  CC50: 4450 nM
IGROV-1
  GI50: 160 nM
  LC50 (concentration killing 50% of cells): 712 nM
  TGI: 338 nM
LOX IMVI
  GI50: 180 nM
  LC50 (concentration killing 50% of cells): 689 nM
  TGI: 352 nM
HOP-92
  GI50: 171 nM
  LC50 (concentration killing 50% of cells): 794 nM
  TGI: 368 nM
786-0
  GI50: 335 nM
  TGI: 1050 nM
  CC50: 3650 nM
HL-60
  GI50: 264 nM
  TGI: 477 nM
  CC50: 863 nM
UO-31
  GI50: 165 nM
  LC50: 613 nM
  TGI: 318 nM
CCRF-CEM
  GI50: 186 nM
  LC50 (concentration killing 50% of cells): 792 nM
  TGI: 384 nM

## CCCNC(=O)CC[C@@H](C)[C@H]1CC[C@H]2[C@@H]3CC[C@@H]4CC5(CC[C@]4(C)[C@H]3C[C@H](OC(C)=O)[C@]12C)OOC1(CCCCC1)OO5
NCI; Homo sapiens, NCI
  GI50: 110 nM
[4]
  GI50: 110 nM
  TGI: 650 nM
[4]; [5]
  CC50: 6820 nM
Plasmodium falciparum [2]; Plasmodium falciparum, W2
  IC50: 40.8 nM
  IC90: 111 nM
Plasmodium falciparum [3]; Plasmodium falciparum, D6
  IC50: 74.3 nM
  IC90: 115 nM

## CC(=O)O[C@H]1C[C@H]2[C@@H](CC[C@@H]3CC4(CC[C@@]32C)OOC2(CCC(C)CC2)OO4)[C@@H]2CC[C@H]([C@H](C)CCC(=O)NCCN(C)C)[C@@]12C (stereo in doubt; 17)
NCI; Homo sapiens, NCI
  GI50: < 5 nM
Plasmodium falciparum [1]
  IC50: 136 nM
  IC90: 153 nM
ACHN
  GI50: 439 nM
  LC50 (concentration killing 50% of cells): 2300 nM
  TGI: 1050 nM
LOX IMVI
  LC50 (concentration killing 50% of cells): 56.4 nM
  TGI: 5.18 nM
CAKI-1
  GI50: 602 nM
  TGI: 1400 nM
  CC50: 3250 nM
786-0
  GI50: 81.3 nM
  TGI: 149 nM
Plasmodium falciparum [2]
  IC50: 136 nM
  IC90: 155 nM
Plasmodium falciparum [3]
  IC50: 104 nM
  IC90: 148 nM
